Our source for the AC50, IC50 and EC50 values is ChEMBL document CHEMBL1201862, “PubChem BioAssay data set” (2004).

Structures can show the parent of a compound that is named as a salt. The source made the active and inactive calls. A value given as a limit tells only on which side of the number the result lay.

Assay [1] in a line: reduction of Shn3 3'UTR-driven luciferase in osteoblasts – cell-based, Clone20 osteoblasts, firefly luciferase, cherry-picked, dose response (AID 624132).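 Note: firefly luciferase luminescence from reporter carrying the Shn3 3'UTR in osteoblasts.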 The format is functional.
Assay [2] can be described thus: loss of viability in HepG2 cells – cell-based, CellTiter-Glo, cherry-picked, cytotoxicity control for Shn3 inhibitor project, dose response (AID 624134). In kind it is functional.
Assay [3] in a line: Luminescence Cell-Based Dose Retest to Confirm Inhibitors of Cancer Stem Cells. [Related pubchem assays (depositor defined):AID2717, AID2721]. The format is functional. The settings on record: Homo sapiens.
A further assay concerns the target Beta Lactamase (Pseudomonas aeruginosa, UniProt Q932Y6). The assay can be described thus: BLA reporter interference, concentration series – BLA reporter cells, FRET fluorescence, artefact control for TLR9-MyD88 binding inhibitor project, dose response (AID 588341).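 Note: cell based assay in CHO-K1 cells stably expressing beta-lactamase.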 The format is cell-based.
The subject of assay [4] is A-375. In words: MITF: Counter assay: A375 proliferation Measured in Cell-Based System Using Plate Reader - 2084-03_Inhibitor_Dose_DryPowder_Activity. [Related pubchem assays (depositor defined):AID488944]. In kind it is functional. The settings on record: Homo sapiens.
The target in assay [5] is Type-1 angiotensin II receptor (Homo sapiens, UniProt P30556). The assay can be described thus: antagonism of angiotensin II type 1 receptor – cell-based, uHTS hits, selectivity assay for APJ receptor antagonist project, dose response (AID 463214).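 Note: antagonist potency against angiotensin II stimulated AT1 response.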 The format is functional.
Another assay has as its target Beta-galactosidase (Escherichia coli, UniProt Q8VNN2). The assay can be described thus: PubChem AID 485352. In kind it is functional.
A further assay relates to CHO. In words: CHO cell viability loss, potency – luminescence, cytotoxicity control for TLR9-MyD88 binding inhibitor project, dose response (AID 588339).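 Note: CHO cells stably coexpressing TLR9 and MyD88 fusions from primary screen; compound exposure lasted 48 hours before viability readout.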 In kind it is functional, cell-based, hamster. The settings on record: Cricetulus griseus.
In assay [6] the target is T1, Fatty acid synthase (Homo sapiens, UniProt P49327). The assay can be described thus: inhibition of human FAS-TE enzyme activity – biochemical, endpoint fluorescence intensity, uHTS hits, dose response (AID 624327).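 Note: fluorescence from hydrolysis of an O-methyl fluorescein acyl ester substrate by the enzyme.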 In kind it is functional.
T1 sequence (P49327 whole entry): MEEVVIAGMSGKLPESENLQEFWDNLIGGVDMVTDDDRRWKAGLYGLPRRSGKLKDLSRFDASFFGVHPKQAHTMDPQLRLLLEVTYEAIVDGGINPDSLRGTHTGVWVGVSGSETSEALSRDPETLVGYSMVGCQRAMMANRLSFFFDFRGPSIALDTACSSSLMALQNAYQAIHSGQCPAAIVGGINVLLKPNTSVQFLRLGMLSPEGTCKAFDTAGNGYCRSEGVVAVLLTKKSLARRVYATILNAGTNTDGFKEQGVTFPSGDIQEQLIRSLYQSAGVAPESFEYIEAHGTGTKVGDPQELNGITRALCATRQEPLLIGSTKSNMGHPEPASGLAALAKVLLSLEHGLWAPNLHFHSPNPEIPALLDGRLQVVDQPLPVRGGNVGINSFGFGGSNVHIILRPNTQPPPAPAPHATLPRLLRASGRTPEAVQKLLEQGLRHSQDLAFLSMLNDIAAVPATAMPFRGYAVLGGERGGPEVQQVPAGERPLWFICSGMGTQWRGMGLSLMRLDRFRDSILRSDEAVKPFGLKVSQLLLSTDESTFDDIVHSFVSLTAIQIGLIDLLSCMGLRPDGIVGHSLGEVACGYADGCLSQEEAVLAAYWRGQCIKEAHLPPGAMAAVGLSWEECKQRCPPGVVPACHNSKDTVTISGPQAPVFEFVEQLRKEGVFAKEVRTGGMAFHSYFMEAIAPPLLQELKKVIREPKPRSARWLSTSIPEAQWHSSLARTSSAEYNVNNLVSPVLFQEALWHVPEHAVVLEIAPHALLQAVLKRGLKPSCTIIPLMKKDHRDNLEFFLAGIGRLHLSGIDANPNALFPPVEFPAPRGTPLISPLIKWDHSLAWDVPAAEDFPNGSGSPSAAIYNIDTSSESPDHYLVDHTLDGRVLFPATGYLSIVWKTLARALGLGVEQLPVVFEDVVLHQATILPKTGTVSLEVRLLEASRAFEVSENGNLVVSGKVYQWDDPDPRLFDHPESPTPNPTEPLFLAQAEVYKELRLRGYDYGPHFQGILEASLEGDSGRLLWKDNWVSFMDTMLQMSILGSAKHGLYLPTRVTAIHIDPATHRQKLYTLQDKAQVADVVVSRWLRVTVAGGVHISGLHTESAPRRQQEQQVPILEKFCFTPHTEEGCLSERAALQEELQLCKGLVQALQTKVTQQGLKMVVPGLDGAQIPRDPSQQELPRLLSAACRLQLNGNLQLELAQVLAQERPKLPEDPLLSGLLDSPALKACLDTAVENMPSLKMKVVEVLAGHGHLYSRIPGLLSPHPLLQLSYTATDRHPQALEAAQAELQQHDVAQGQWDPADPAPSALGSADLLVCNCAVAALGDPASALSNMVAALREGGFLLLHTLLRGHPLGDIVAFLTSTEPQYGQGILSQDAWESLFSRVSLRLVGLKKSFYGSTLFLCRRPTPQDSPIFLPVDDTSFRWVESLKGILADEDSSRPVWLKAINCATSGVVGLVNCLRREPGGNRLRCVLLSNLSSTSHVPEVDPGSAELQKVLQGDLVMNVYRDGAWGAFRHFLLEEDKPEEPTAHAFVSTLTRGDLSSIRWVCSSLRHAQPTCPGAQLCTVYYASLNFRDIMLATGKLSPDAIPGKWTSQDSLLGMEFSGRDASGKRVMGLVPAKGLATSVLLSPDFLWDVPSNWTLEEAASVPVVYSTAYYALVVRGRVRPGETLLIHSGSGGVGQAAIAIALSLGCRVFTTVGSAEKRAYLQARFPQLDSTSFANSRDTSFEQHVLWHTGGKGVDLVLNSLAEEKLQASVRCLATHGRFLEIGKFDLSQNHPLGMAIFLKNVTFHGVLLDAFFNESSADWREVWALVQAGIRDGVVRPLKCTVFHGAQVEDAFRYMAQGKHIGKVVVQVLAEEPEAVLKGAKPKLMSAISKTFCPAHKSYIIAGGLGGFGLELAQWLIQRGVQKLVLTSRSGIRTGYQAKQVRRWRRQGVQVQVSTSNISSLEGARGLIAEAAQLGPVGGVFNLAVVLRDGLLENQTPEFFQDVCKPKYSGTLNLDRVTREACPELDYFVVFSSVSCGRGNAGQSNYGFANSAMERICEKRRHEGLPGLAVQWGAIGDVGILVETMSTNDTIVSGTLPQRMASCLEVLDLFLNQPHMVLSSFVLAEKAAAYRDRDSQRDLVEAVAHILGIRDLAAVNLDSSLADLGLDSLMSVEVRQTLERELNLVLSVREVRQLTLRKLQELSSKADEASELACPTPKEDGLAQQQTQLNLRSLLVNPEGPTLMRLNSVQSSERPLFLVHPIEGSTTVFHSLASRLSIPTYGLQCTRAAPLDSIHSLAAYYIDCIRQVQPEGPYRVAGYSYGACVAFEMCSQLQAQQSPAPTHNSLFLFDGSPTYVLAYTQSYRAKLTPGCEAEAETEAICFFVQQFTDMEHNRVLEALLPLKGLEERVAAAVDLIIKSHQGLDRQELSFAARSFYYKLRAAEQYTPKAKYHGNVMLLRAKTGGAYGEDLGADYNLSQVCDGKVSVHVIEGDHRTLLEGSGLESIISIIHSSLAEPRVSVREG
The nature of assay [7]: non-specific 3'UTR reporter inhibition in Clone20-Shn3RL – cell-based, Renilla luciferase, cherry-picked, counter-screen for Shn3 inhibitor project, dose response (AID 624133). In kind it is functional.
For assay [8], the target named is Heat shock protein HSP 90-alpha (Homo sapiens, UniProt P07900). The format is functional, organism-based.
Assay [9] concerns the target ATP-binding cassette sub-family B member 6 (Homo sapiens, UniProt Q9NP58). The assay can be described thus: concentration-dependent ABCB6 porphyrin transport blockade – K562-ABCB6 cells, flow cytometry, cherry pick 1, dose response (AID 623955). In kind it is functional. As to conditions: read-out: EC50_MICROM.
Assay [10] has as its target T1, Fatty acid synthase. In words: inhibition of human FAS-TE enzyme activity – biochemical, kinetic fluorescence intensity, dose response (AID 624326).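 Note: rate of fluorescence rise from hydrolysis of a fluorogenic O-methyl fluorescein ester substrate.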 In kind it is functional.
For assay [11], the target named is T2, Microphthalmia-associated transcription factor (Homo sapiens, UniProt O75030).
T2 sequence (O75030 whole entry): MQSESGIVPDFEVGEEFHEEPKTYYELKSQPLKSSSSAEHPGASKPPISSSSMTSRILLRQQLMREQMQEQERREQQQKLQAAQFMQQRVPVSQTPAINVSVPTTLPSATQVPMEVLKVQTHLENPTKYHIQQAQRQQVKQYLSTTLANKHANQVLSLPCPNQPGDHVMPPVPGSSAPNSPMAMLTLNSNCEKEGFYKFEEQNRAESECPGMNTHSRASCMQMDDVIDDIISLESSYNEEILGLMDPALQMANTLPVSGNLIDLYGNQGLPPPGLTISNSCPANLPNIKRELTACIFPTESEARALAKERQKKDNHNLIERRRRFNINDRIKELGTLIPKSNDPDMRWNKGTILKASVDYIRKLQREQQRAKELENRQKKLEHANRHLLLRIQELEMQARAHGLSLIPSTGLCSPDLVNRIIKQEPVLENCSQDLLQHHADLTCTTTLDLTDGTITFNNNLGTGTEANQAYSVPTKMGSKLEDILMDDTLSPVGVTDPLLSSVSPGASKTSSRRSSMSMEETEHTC
In words: reducers of TRPM1 reporter luminescence, concentration series – cell-based, SK-MEL-5, cherry-picked, set 3, MITF inhibitor project, dose response (AID 493073).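 Note: SK-MEL-5 melanoma cells with luciferase driven by the MITF target TRPM1 promoter.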 The format is functional.

The test system of assay [12] is A-375. In words: proliferation inhibition in MITF-low A375 cells – cell-based, cherry-pick samples, set 2, counter-screen for MITF modulator project, dose response (AID 540335). The format is functional. The settings on record: Homo sapiens.
The target in another assay is Paired box protein Pax-8 (Homo sapiens, UniProt Q06710). The assay can be described thus: PAX8 transcriptional activity inhibition in RMG-I – RMG-I cells, luciferase, cherry-pick, dose response (AID 687027).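 Note: luciferase reporter driven by Pax8 target thyroperoxidase promoter measured by SteadyGlo luminescence.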 In kind it is functional, cell-based.
For assay [13], the target named is T3, Orexin/Hypocretin receptor type 1 (Homo sapiens, UniProt O43613).
T3 sequence (O43613 whole entry): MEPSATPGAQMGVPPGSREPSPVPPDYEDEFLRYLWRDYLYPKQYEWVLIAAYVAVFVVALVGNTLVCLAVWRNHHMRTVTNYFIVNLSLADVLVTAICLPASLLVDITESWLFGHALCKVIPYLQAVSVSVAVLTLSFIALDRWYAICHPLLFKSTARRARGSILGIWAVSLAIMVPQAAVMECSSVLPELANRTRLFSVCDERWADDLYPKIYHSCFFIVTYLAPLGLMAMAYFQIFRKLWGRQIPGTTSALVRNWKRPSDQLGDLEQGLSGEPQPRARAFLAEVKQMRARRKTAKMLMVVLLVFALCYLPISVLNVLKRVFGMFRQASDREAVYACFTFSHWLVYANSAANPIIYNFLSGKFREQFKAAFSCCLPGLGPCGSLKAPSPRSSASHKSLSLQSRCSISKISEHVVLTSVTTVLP
The assay can be described thus: Fluorescence-based cell-based high throughput dose response assay for antagonists of the orexin 1 receptor (OX1R; HCRTR1). [Related pubchem assays (depositor defined):AID434989, AID435008, AID463079, AID485270, AID492963, AID492964, AID492965, AID493232, AID504717, AID504718]. The format is functional.

Assay [14] has as its target T4, Orexin receptor type 2 (Homo sapiens, UniProt O43614).
T4 sequence (O43614 whole entry): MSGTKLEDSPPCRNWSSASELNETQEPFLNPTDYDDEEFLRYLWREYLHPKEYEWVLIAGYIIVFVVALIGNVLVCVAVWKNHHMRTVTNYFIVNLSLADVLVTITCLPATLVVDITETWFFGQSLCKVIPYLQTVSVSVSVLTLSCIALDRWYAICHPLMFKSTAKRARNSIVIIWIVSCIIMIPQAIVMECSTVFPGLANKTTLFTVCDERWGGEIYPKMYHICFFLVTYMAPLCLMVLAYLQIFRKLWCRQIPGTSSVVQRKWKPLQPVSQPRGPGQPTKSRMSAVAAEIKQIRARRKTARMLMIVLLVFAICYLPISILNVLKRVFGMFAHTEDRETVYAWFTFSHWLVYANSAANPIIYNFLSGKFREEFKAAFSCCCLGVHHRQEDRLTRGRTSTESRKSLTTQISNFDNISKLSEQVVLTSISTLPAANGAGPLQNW
The assay can be described thus: Counterscreen assay for antagonists of the orexin 1 receptor (OX1R; HCRTR1): Fluorescence-based cell-based dose response assay for antagonists of the orexin 2 receptor (OX2R; HCRTR2), run by assay provider. In kind it is functional.

The target of assay [15] is T4, Orexin receptor type 2. The assay can be described thus: Counterscreen assay for antagonists of the orexin 1 receptor (OX1R; HCRTR1): Homogeneous Time Resolved Fluorescence (HTRF)-based cell-based dose response assay for antagonists of the orexin 2 receptor (OX2R; HCRTR2), run by assay provider. In kind it is functional.
In assay [16] the target is T3, Orexin/Hypocretin receptor type 1. The assay can be described thus: Homogeneous Time Resolved Fluorescence (HTRF)-based cell-based high throughput dose response assay for antagonists of the orexin 1 receptor (OX1R; HCRTR1). [Related pubchem assays (depositor defined):AID434989, AID435008, AID463079, AID485270, AID492963, AID492964, AID492965, AID493232, AID504717, AID504718]. The format is functional.

Assay [17] is described as follows: Counterscreen for antagonists of the orexin 1 receptor (OX1R; HCRTR1): Fluorescence-based cell-based high throughput dose response assay to identify antagonists of the parental CHO cell line. [Related pubchem assays (depositor defined):AID434989, AID435008, AID463079, AID485270, AID492963, AID492964, AID492965, AID493232, AID504699, AID504701]. In kind it is functional.

The next assay deals with CHO-K1. The assay can be described thus: Counterscreen for antagonists of the orexin 1 receptor (OX1R; HCRTR1): Homogeneous time resolved fluorescence (HTRF)-based cell-based dose response assay to identify antagonists of the parental CHO-K1 cell line. [Related pubchem assays (depositor defined):AID434989, AID435008, AID463079, AID485270, AID492963, AID492964, AID492965, AID493232, AID504699, AID504701]. As to conditions: Cricetulus griseus. In kind it is functional.

The target of assay [18] is T5, High affinity choline transporter 1 (Homo sapiens, UniProt Q9GZV3).
T5 sequence (Q9GZV3 whole entry): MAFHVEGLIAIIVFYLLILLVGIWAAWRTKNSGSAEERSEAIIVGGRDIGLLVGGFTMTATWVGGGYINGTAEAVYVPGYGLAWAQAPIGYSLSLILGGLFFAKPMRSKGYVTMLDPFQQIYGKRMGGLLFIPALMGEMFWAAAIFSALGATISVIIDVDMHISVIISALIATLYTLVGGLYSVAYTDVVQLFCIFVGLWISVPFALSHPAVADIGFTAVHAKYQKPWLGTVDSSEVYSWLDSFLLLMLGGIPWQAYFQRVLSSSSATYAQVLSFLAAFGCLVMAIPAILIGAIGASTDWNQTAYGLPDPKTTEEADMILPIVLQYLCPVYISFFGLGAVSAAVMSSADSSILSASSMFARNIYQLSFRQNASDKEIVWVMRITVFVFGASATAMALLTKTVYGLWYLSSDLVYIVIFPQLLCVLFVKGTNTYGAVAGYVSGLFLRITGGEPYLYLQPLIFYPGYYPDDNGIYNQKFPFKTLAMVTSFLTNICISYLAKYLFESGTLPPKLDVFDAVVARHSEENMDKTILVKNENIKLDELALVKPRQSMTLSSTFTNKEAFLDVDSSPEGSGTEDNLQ
In words: human choline transporter potentiators, potency – cell-based, 10-point CRC, membrane potential dye, dose response (AID 602376). In kind it is functional.

Assay [19] deals with DNA dC->dU-editing enzyme APOBEC-3G (Homo sapiens, UniProt Q9HC16). In kind it is functional.
DNA dC->dU-editing enzyme APOBEC-3G, sequence (Q9HC16 whole entry): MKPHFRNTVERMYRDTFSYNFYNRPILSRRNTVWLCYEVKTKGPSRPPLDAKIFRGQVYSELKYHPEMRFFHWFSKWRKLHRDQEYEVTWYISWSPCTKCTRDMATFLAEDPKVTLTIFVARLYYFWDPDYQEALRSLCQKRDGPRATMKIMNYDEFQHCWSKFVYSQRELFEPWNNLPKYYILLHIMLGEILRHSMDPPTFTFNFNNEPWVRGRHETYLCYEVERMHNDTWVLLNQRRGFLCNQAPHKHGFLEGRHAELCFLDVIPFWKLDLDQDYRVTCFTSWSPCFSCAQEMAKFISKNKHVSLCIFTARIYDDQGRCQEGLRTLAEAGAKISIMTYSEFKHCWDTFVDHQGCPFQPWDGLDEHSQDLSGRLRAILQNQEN
Assay [20] has as its target DNA dC->dU-editing enzyme APOBEC-3A (Homo sapiens, UniProt P31941). In words: Dose Response confirmation of small molecule APOBEC3A DNA Deaminase Inhibitors via a fluorescence-based single-stranded DNA deaminase assay. [Related pubchem assays (depositor defined):AID493011, AID493024]. In kind it is functional.
The target in assay [21] is Benomyl/methotrexate resistance protein (Candida albicans, UniProt P28873). The assay can be described thus: Candida albicans Mdr1 pump inhibition curves – singleplex, Cherry Pick1 hits, dose response (AID 588608). The format is functional.
The target of assay [22] is Photoreceptor-specific nuclear receptor (Homo sapiens, UniProt Q9Y5X4). The format is functional, cell-based.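 Note: CHO-S cells with Gal4-NCOR and VP16-NR2E3 two-hybrid luciferase reporter.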
Photoreceptor-specific nuclear receptor, sequence (Q9Y5X4 whole entry, the tested form may be a part): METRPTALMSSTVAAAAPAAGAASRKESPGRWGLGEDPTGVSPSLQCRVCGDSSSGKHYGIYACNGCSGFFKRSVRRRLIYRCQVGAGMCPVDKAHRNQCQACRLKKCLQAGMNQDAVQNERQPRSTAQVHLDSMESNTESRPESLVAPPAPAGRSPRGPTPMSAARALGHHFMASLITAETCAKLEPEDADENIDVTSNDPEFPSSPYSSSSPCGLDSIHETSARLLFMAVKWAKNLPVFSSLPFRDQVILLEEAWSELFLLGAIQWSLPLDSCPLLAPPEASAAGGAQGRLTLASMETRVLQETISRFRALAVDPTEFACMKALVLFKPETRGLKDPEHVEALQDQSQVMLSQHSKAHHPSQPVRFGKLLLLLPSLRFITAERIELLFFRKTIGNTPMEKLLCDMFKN
Assay [23] concerns the target T5, High affinity choline transporter 1. The assay can be described thus: human choline transporter blockers, potency – cell-based, 5-point CRC, membrane potential dye, dose response (AID 504840). The format is functional.
For assay [24] the target is unchanged. In words: human choline transporter blockers, potency – cell-based, 10-point CRC, membrane potential dye, dose response (AID 588401).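 Note: membrane potential dye fluorescence of choline-evoked depolarization via CHT.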 The format is functional.

DNA dC->dU-editing enzyme APOBEC-3A, sequence (P31941 whole entry): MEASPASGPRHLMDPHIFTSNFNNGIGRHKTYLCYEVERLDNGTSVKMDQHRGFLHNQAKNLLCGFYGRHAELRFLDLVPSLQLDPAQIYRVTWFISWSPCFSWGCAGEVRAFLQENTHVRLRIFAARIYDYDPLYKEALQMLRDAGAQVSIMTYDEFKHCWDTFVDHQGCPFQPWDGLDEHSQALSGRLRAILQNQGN
Beta-galactosidase, sequence (Q8VNN2 whole entry, the tested form may be a part): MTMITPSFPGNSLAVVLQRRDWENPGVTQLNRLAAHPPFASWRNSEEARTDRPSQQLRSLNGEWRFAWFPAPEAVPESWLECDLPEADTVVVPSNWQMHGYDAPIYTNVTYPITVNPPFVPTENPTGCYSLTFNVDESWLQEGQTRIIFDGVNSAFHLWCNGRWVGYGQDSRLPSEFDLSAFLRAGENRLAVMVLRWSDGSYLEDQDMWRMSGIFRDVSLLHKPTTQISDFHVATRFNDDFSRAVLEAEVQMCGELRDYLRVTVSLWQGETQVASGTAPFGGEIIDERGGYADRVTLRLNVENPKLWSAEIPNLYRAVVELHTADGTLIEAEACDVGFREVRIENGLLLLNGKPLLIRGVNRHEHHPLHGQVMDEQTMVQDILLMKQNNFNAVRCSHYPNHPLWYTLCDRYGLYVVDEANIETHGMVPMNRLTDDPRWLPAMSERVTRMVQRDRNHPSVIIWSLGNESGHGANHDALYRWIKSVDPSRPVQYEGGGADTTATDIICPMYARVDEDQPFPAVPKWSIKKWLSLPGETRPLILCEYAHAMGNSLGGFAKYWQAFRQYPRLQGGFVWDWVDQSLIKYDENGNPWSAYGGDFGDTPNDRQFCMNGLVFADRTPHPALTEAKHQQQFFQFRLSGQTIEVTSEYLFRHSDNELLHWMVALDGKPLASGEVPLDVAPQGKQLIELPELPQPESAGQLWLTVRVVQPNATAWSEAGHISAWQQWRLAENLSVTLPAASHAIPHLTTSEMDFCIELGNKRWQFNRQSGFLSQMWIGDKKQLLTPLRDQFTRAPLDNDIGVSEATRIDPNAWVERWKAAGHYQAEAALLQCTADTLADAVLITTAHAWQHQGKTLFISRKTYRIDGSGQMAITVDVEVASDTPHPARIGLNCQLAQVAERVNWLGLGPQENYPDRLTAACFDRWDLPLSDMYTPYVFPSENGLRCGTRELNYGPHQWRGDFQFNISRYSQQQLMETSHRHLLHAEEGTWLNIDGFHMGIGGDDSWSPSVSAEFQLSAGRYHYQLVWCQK
Beta Lactamase, sequence (Q932Y6 whole entry): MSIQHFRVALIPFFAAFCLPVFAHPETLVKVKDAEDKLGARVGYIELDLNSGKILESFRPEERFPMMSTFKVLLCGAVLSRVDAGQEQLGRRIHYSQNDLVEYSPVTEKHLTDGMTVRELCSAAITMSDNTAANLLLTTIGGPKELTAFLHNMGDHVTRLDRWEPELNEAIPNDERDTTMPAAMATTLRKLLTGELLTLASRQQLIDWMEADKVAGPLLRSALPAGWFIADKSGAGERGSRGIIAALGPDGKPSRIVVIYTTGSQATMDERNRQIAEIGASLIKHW

As to `O=C(Nc1ccc(F)cc1)c1nc(S(=O)(=O)Cc2ccccc2)ncc1Cl`, the AC50 was 3.38 µM (active) in assay [1]; 22.6 µM (active) in [2]; 1.63 µM (active) in assay [3]; > 11 µM (active) in the assay on A-375 [4]; 6.61 µM (active) in [7]; 3.46 µM (active) in assay [8]. Also, the AC50 in assay [11] was 9.45 µM (active); with A-375 [12] it was > 11 µM (active); on Paired box protein Pax-8, 10.4 µM (active). The IC50 is 5.43 µM (active) on Beta Lactamase; 11.8 µM (active) in assay [5]; 2.79 µM (active) in the assay on CHO; 13.4 µM (active) at Fatty acid synthase [6]; 8.67 µM (active) at Fatty acid synthase [10]. Further, the EC50 on Beta-galactosidase was > 40 µM (inactive); in [9], 62.8 µM (active).

Regarding `c1ccc(N2CCN(c3ncnc4c3oc3ccccc34)CC2)cc1`, the IC50 was 12.4 µM (inactive) in [13]; > 88.8 µM (inactive) at Orexin receptor type 2 [14]; > 50 µM (inactive) on Orexin receptor type 2 [15]; 4.71 µM (active) in [16]; 17.7 µM (inactive) in [17]; > 66.3 µM (inactive) with CHO-K1.

As to `CCN1C(NCCc2cccnc2)=N[C@@H](c2ccccc2)[C@H](C(=O)OC)[C@H]1C`, in assay [18], the EC50 was 14.6 µM (active). Further, the IC50 in assay [19] is 6.37 µM (active); in assay [20], 4.22 µM (active).

Take `Cc1ccc(C)c(C(=O)COC(=O)c2ccc(C)c(S(=O)(=O)N3CCOCC3)c2)c1`: the EC50 in [21] is 0.704 µM (active).

For `Cc1ccc(N/C(S)=C(\C#N)c2nc3ccccc3s2)cc1`, in assay [22], the IC50 is 1.49 µM (active).

Consider `CC(C)(C)NCC(O)c1cc(Cl)c(N)c(Cl)c1` (centres undefined) [CLENBUTEROL HYDROCHLORIDE], for which the IC50 was 0.0288 µM (active) in assay [23] and 0.000897 µM (active) in assay [24].
